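Five concentrations, 48 hours, 96-well plates. GI50 is the concentration that inhibits growth by half. TGI: concentration producing complete growth inhibition.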
How the values were obtained:
Test in all cases: NCI tumour cell line growth inhibition, 48 h
786-0 renal = tested on: 786-0 renal
A498 renal = tested on: A498 renal
A549 NSCLC = tested on: A549 NSCLC
ACHN renal = tested on: ACHN renal
BT-549 breast = tested on: BT-549 breast
CAKI-1 renal = tested on: CAKI-1 renal
CCRF-CEM leukemia = tested on: CCRF-CEM leukemia
COLO 205 colon = tested on: COLO 205 colon
DU-145 prostate = tested on: DU-145 prostate
EKVX NSCLC = tested on: EKVX NSCLC
HCC-2998 colon = tested on: HCC-2998 colon
HCT-116 colon = tested on: HCT-116 colon
HCT-15 colon = tested on: HCT-15 colon
HOP-62 NSCLC = tested on: HOP-62 NSCLC
HOP-92 NSCLC = tested on: HOP-92 NSCLC
HS 578T breast = tested on: HS 578T breast
HT29 colon = tested on: HT29 colon
IGROV1 ovarian = tested on: IGROV1 ovarian
K-562 leukemia = tested on: K-562 leukemia
KM12 colon = tested on: KM12 colon
LOX IMVI melanoma = tested on: LOX IMVI melanoma
M14 melanoma = tested on: M14 melanoma
MALME-3M melanoma = tested on: MALME-3M melanoma
MCF7 breast = tested on: MCF7 breast
MDA-MB-231 breast = tested on: MDA-MB-231 breast
MDA-MB-435 = tested on: MDA-MB-435
MOLT-4 leukemia = tested on: MOLT-4 leukemia
NCI-H226 lung = tested on: NCI-H226 lung
NCI-H23 lung = tested on: NCI-H23 lung
NCI-H460 lung = tested on: NCI-H460 lung
NCI-H522 lung = tested on: NCI-H522 lung
NCI/ADR-RES ovarian = tested on: NCI/ADR-RES ovarian
OVCAR-3 ovarian = tested on: OVCAR-3 ovarian
OVCAR-4 ovarian = tested on: OVCAR-4 ovarian
OVCAR-5 ovarian = tested on: OVCAR-5 ovarian
OVCAR-8 ovarian = tested on: OVCAR-8 ovarian
PC-3 prostate = tested on: PC-3 prostate
RPMI-8226 leukemia = tested on: RPMI-8226 leukemia
RXF 393 renal = tested on: RXF 393 renal
SF-268 CNS = tested on: SF-268 CNS
SF-295 CNS = tested on: SF-295 CNS
SF-539 CNS = tested on: SF-539 CNS
SK-MEL-2 melanoma = tested on: SK-MEL-2 melanoma
SK-MEL-28 melanoma = tested on: SK-MEL-28 melanoma
SK-MEL-5 melanoma = tested on: SK-MEL-5 melanoma
SK-OV-3 ovarian = tested on: SK-OV-3 ovarian
SN12C renal = tested on: SN12C renal
SNB-19 CNS = tested on: SNB-19 CNS
SNB-75 CNS = tested on: SNB-75 CNS
SW-620 colon = tested on: SW-620 colon
T-47D breast = tested on: T-47D breast
TK-10 renal = tested on: TK-10 renal
U251 CNS = tested on: U251 CNS
UACC-257 melanoma = tested on: UACC-257 melanoma
UACC-62 melanoma = tested on: UACC-62 melanoma
UO-31 renal = tested on: UO-31 renal
HL-60(TB) leukemia = tested on: HL-60(TB) leukemia
SR leukemia = tested on: SR leukemia

## CCC(C)n1ncn(-c2ccc(N3CCN(c4ccc(OCC5COC(Cn6cncn6)(c6ccc(Cl)cc6Cl)O5)cc4)CC3)cc2)c1=O (stereo not drawn)
786-0 renal
  GI50: 0.559 µM
  TGI: 32.7 µM
A498 renal
  GI50: 10.8 µM
  TGI: > 100 µM
A549 NSCLC
  GI50: 35.8 µM
  TGI: > 100 µM
ACHN renal
  GI50: 21.7 µM
  TGI: > 100 µM
BT-549 breast
  GI50: 3.6 µM
  TGI: > 100 µM
CAKI-1 renal
  GI50: 2.88 µM
  TGI: > 100 µM
CCRF-CEM leukemia
  GI50: > 100 µM
  TGI: > 100 µM
COLO 205 colon
  GI50: 4.12 µM
  TGI: > 100 µM
DU-145 prostate
  GI50: > 100 µM
  TGI: > 100 µM
EKVX NSCLC
  GI50: 1.24 µM
  TGI: > 100 µM
HCC-2998 colon
  GI50: 84.1 µM
  TGI: > 100 µM
HCT-116 colon
  GI50: 21.6 µM
  TGI: > 100 µM
HCT-15 colon
  GI50: 15.3 µM
  TGI: > 100 µM
HOP-62 NSCLC
  GI50: 8.97 µM
  TGI: 37 µM
HOP-92 NSCLC
  GI50: 0.335 µM
  TGI: 24.5 µM
HS 578T breast
  GI50: 7.42 µM
  TGI: > 100 µM
HT29 colon
  GI50: 0.867 µM
  TGI: > 100 µM
IGROV1 ovarian
  GI50: 82.5 µM
  TGI: > 100 µM
K-562 leukemia
  GI50: 9.76 µM
  TGI: > 100 µM
KM12 colon
  GI50: 5.69 µM
  TGI: > 100 µM
LOX IMVI melanoma
  GI50: 9.41 µM
  TGI: > 100 µM
M14 melanoma
  GI50: 5.91 µM
  TGI: > 100 µM
MALME-3M melanoma
  GI50: 46.2 µM
  TGI: > 100 µM
MCF7 breast
  GI50: 22.2 µM
  TGI: > 100 µM
MDA-MB-231 breast
  GI50: 7.11 µM
  TGI: > 100 µM
MDA-MB-435
  GI50: > 100 µM
  TGI: > 100 µM
MOLT-4 leukemia
  GI50: > 100 µM
  TGI: > 100 µM
NCI-H226 lung
  GI50: 28.1 µM
  TGI: > 100 µM
NCI-H23 lung
  GI50: 27.8 µM
  TGI: > 100 µM
NCI-H460 lung
  GI50: 9.62 µM
  TGI: > 100 µM
NCI-H522 lung
  GI50: 15.4 µM
  TGI: 60.8 µM
NCI/ADR-RES ovarian
  GI50: 26.1 µM
  TGI: > 100 µM
OVCAR-3 ovarian
  GI50: 40.9 µM
  TGI: > 100 µM
OVCAR-4 ovarian
  GI50: 35.2 µM
  TGI: > 100 µM
OVCAR-5 ovarian
  GI50: 56.3 µM
  TGI: > 100 µM
OVCAR-8 ovarian
  GI50: 20.2 µM
  TGI: > 100 µM
PC-3 prostate
  GI50: 3.96 µM
  TGI: > 100 µM
RPMI-8226 leukemia
  GI50: 0.973 µM
  TGI: > 100 µM
RXF 393 renal
  GI50: 0.267 µM
  TGI: 0.865 µM
SF-268 CNS
  GI50: 33.6 µM
  TGI: > 100 µM
SF-295 CNS
  GI50: 1.4 µM
  TGI: > 100 µM
SF-539 CNS
  GI50: 7.73 µM
  TGI: > 100 µM
SK-MEL-2 melanoma
  GI50: 13.8 µM
  TGI: 68.9 µM
SK-MEL-28 melanoma
  GI50: > 100 µM
  TGI: > 100 µM
SK-MEL-5 melanoma
  GI50: 2.75 µM
  TGI: > 100 µM
SK-OV-3 ovarian
  GI50: 24.2 µM
  TGI: > 100 µM
SN12C renal
  GI50: > 100 µM
  TGI: > 100 µM
SNB-19 CNS
  GI50: 38.9 µM
  TGI: > 100 µM
SNB-75 CNS
  GI50: 11.4 µM
  TGI: 71.2 µM
SW-620 colon
  GI50: > 100 µM
  TGI: > 100 µM
T-47D breast
  GI50: 1.27 µM
  TGI: 74.3 µM
TK-10 renal
  GI50: 28.6 µM
  TGI: > 100 µM
U251 CNS
  GI50: 4.03 µM
  TGI: > 100 µM
UACC-257 melanoma
  GI50: 57.7 µM
  TGI: > 100 µM
UACC-62 melanoma
  GI50: 17.6 µM
  TGI: > 100 µM
UO-31 renal
  GI50: 30 µM
  TGI: > 100 µM

## COc1ccc(/C=C(/C(=O)N2CCN(c3ccccc3)CC2)c2cc(OC)c(OC)c(OC)c2)cc1O
786-0 renal
  GI50: 4.1 µM
  TGI: > 100 µM
A498 renal
  GI50: 0.211 µM
  TGI: 1.92 µM
A549 NSCLC
  GI50: 0.764 µM
  TGI: > 100 µM
ACHN renal
  GI50: 0.457 µM
  TGI: > 100 µM
BT-549 breast
  GI50: 0.391 µM
  TGI: 98.5 µM
CCRF-CEM leukemia
  GI50: 0.355 µM
  TGI: > 100 µM
COLO 205 colon
  GI50: 3.89 µM
  TGI: 22.1 µM
DU-145 prostate
  GI50: 0.451 µM
  TGI: > 100 µM
EKVX NSCLC
  GI50: 0.631 µM
  TGI: > 100 µM
HCC-2998 colon
  GI50: 0.499 µM
  TGI: > 100 µM
HCT-116 colon
  GI50: 0.37 µM
  TGI: > 100 µM
HCT-15 colon
  GI50: 0.341 µM
  TGI: > 100 µM
HL-60(TB) leukemia
  GI50: 0.239 µM
  TGI: 0.575 µM
HOP-62 NSCLC
  GI50: 0.55 µM
  TGI: > 100 µM
HOP-92 NSCLC
  GI50: 22 µM
  TGI: > 100 µM
HS 578T breast
  GI50: 0.712 µM
  TGI: > 100 µM
HT29 colon
  GI50: 5 µM
  TGI: 38.5 µM
IGROV1 ovarian
  GI50: 0.519 µM
  TGI: > 100 µM
K-562 leukemia
  GI50: 0.296 µM
  TGI: > 100 µM
KM12 colon
  GI50: 0.414 µM
  TGI: > 100 µM
LOX IMVI melanoma
  GI50: 0.398 µM
  TGI: > 100 µM
M14 melanoma
  GI50: 0.315 µM
  TGI: 24 µM
MALME-3M melanoma
  GI50: 24.7 µM
  TGI: > 100 µM
MCF7 breast
  GI50: 0.307 µM
  TGI: > 100 µM
MDA-MB-231 breast
  GI50: 0.378 µM
  TGI: 50.9 µM
MDA-MB-435
  GI50: 0.15 µM
  TGI: 0.514 µM
MOLT-4 leukemia
  GI50: 0.368 µM
  TGI: > 100 µM
NCI-H226 lung
  GI50: 60.9 µM
  TGI: > 100 µM
NCI-H23 lung
  GI50: 0.938 µM
  TGI: > 100 µM
NCI-H460 lung
  GI50: 0.374 µM
  TGI: > 100 µM
NCI-H522 lung
  GI50: 0.128 µM
  TGI: 0.594 µM
NCI/ADR-RES ovarian
  GI50: 0.676 µM
  TGI: > 100 µM
OVCAR-3 ovarian
  GI50: 0.322 µM
  TGI: 6.76 µM
OVCAR-4 ovarian
  GI50: 2.7 µM
  TGI: > 100 µM
OVCAR-5 ovarian
  GI50: 0.678 µM
  TGI: > 100 µM
OVCAR-8 ovarian
  GI50: 0.419 µM
  TGI: > 100 µM
PC-3 prostate
  GI50: 0.58 µM
  TGI: > 100 µM
RPMI-8226 leukemia
  GI50: 0.374 µM
  TGI: 21.4 µM
SF-268 CNS
  GI50: 0.543 µM
  TGI: > 100 µM
SF-295 CNS
  GI50: 0.808 µM
  TGI: > 100 µM
SF-539 CNS
  GI50: 0.205 µM
  TGI: 0.708 µM
SK-MEL-2 melanoma
  GI50: 0.387 µM
  TGI: 86.5 µM
SK-MEL-28 melanoma
  GI50: 0.671 µM
  TGI: > 100 µM
SK-MEL-5 melanoma
  GI50: 0.361 µM
  TGI: 11.8 µM
SK-OV-3 ovarian
  GI50: 0.586 µM
  TGI: > 100 µM
SN12C renal
  GI50: 0.564 µM
  TGI: > 100 µM
SNB-19 CNS
  GI50: 0.481 µM
  TGI: > 100 µM
SNB-75 CNS
  GI50: 0.293 µM
  TGI: > 100 µM
SR leukemia
  GI50: 0.381 µM
  TGI: 58.4 µM
SW-620 colon
  GI50: 0.468 µM
  TGI: > 100 µM
T-47D breast
  GI50: 51.3 µM
  TGI: > 100 µM
TK-10 renal
  GI50: 23.4 µM
  TGI: > 100 µM
U251 CNS
  GI50: 0.445 µM
  TGI: > 100 µM
UACC-257 melanoma
  GI50: 30.6 µM
  TGI: > 100 µM
UACC-62 melanoma
  GI50: 0.332 µM
  TGI: > 100 µM
UO-31 renal
  TGI: 90.8 µM
